Results published in patent US20120115951A1, “PROTECTIVE ACTION OF SEROFENDIC ACID ON CARDIAC MUSCLE” (Eisai R & D Managment Co., Ltd, priority 2005, published 2012).

Key:
[1] = test system: neonatal rat cardiac myocytes; test: FACS analysis of ΔΨm in TMRE-loaded cells; type: cell-based; settings: for protection against ΔΨm loss in the presence of mitoKATP channel blocker 5HD: 100 μM drug plus 500 μM 5HD
Procedure: (§1) Cardiac ventricular myocytes were prepared from 1-2-day-old Wister rats and cultured as previously described (Akao M, et al., Circ Res. 2001; 88:1267-75). In brief, the hearts were removed, and the ventricles were minced into small fragments, which were digested by trypsin dissociation. The dissociated cells were preplated for 1 hour to enrich the culture with myocytes. The non-adherent myocytes were then plated in plating medium consisting of Dulbecco's Modified Eagle Medium (DMEM) (Nacalai tesque; Kyoto, Japan) supplemented with 5% fetal calf serum, penicillin (100 U/ml), streptomycin ([…]), and 2 μg/ml vitamin B12. The final myocyte cultures contained >90% cardiac myocytes. The cells were maintained at 37° C. in the presence of 5% CO2 in a humidified incubator. Bromodeoxyuridine (0.1 mM) was incubated in the medium for the first 3 days after plating to inhibit fibroblast growth. Cultures were then placed in serum-free DMEM containing vitamin B12 and transferrin, 24 hours prior to the drug treatment.
(§2) To monitor ΔΨm, cells were loaded with 100 nM tetramethylrhodamine ethyl ester (TMRE) (Molecular Probes) at 37° C. for 20 minutes. To monitor [Ca^2+]m, the cells were loaded with 2 μM […] (Molecular Probes) at 37° C. for 30 minutes. We assayed intracellular ROS production using chloromethyl-2,7-dichlorodihydrofluorescein diacetate (DCF) (Molecular Probes). Cells were loaded with 4 μM DCF at 37° C. for 30 minutes, and formation of the oxidized derivative was monitored by the increase of green fluorescence.
For FACS analysis of ΔΨm, TMRE-loaded cells were harvested by trypsinization at the end of the experimental protocols, and analyzed using FACSAria (BD Biosciences; San Jose, Calif.) (20,000 cells/sample). The fluorescence intensity of TMRE was monitored at 582 nm (FL-2). The FACS data were analyzed using analysis software (WinMDI; http://facs/scripps.edu/software.html).
C=Control cells; H=Cells exposed to 100 μM H2O2 for 1 hour; SFA=Cells pretreated with 100 μM SFA followed by 100 μM H2O2 for 1 hour. In all histograms, the position of the major population of cells in the control group is indicated by a vertical dashed line. […] Cells were pretreated with various concentrations of SFA followed by 100 μM H2O2 for 1 hour. C=Control cells. SFA preserved ΔΨm in a concentration-dependent manner
FIG. 2c and FIG. 2d show the summarized data of the percentage of cells that maintain high (>200) TMRE fluorescence. The cells were pre-treated with various drugs shown in the figure and then treated with 100 μM H2O2 for 1 hour. DZ=100 μM diazoxide; 5HD=500 μM 5-hydroxydecanoate.

[2] = test system: isolated cardiac myocytes; settings: previously reported (Akao et al. 2001); cited from earlier work
[3] = test system: neonatal rat cardiac myocytes; test: TUNEL staining and DAPI staining of neonatal rat cardiac myocytes exposed to H2O2; type: cell-based
Procedure: as §1, with “Cultures were then placed in serum-free DMEM containing vitamin B12 and transferrin, 24 hours prior to the drug treatment.” left out
TUNEL staining was performed according to the manufacturer's protocol (Roche; Indianapolis, Ind.). Fluorescein labels incorporated in nucleotide polymers were detected with a fluorescence microscope (Axioskop 2 plus, Zeiss; Thornwood, N.Y.).
Cells were stained with the DNA binding dye DAPI (5 μM, Molecular Probes; Eugene, Oreg.). The nuclear morphology of cells were visualized and photographed with the fluorescence microscope. […]

[4] = test system: neonatal rat cardiac myocytes; test: MTS assay of cell viability after H2O2; type: cell-based; settings: 100 μM SFA; H2O2 treatment 3 hours; P<0.01 vs H group
Procedure: as §1, with “Bromodeoxyuridine (0.1 mM) was incubated in the medium for the first 3 days after plating to inhibit fibroblast growth. Cultures were then placed in serum-free DMEM containing vitamin B12 and transferrin, 24 hours prior to the drug treatment.” left out
Cell viability was quantified based on metabolic activity using the MTS assay (Promega; Madison, Wis.). […] The quantity of formazan product is directly proportional to the number of living cells in culture (Zhang H M, et al., Circ Res. 2002; 90:1251-8).
The cultures were incubated in serum-free medium containing 20 μl/well of the MTS tetrazolium compound for 3 hours at 37° C. The absorbance of formazan products was photometrically measured at 490 nm with a microplate reader, ARVOsx (PerkinElmer; Shelton, Wash.). Cell viability was expressed as the percentage of the absorbance measured in the control group. […]

[5] = test system: neonatal rat cardiac myocytes; test: Time-lapse confocal analysis of ΔΨm loss (TMRE fluorescence); type: cell-based
Procedure: as §2
(§3) Cells plated on 35 mm glass-bottom dishes were maintained at 37° C. in the presence of 5% CO2 using a heater platform installed on a microscope stage, and were placed in serum-free DMEM. After the desired temperature was reached, time-lapse confocal microscopy was started with 2 minute intervals, using a 20× objective lens. Images were taken with laser scanning confocal microscopy (Zeiss, LSM510). TMRE and rhod-2 AM were excited at 543 nm using a helium/neon laser. DCF was excited at 488 nm using an argon laser.
(§4) Twenty-five cells were randomly selected in each scan, and the red or green fluorescence intensity was sequentially monitored.
To further confirm the protective effect of SFA in preventing the loss of ΔΨm, the present inventors examined the time-dependent changes of ΔΨm on a single-cell basis (FIG. 3). Time-lapse confocal analysis of cardiac myocytes loaded with TMRE was performed at 2-minute intervals. Time-lapse scanning began immediately after the application of 50 μM H2O2.
C=Control cells; H=Cells exposed to 100 μM H2O2 for 1 hour; SFA=Cells pretreated with 100 μM SFA followed by 100 μM H2O2 for 1 hour. Scale bars at 0 min frames: 20 μm.

[6] = test system: neonatal rat cardiac myocytes; test: Time-lapse confocal analysis of intracellular ROS production (DCF fluorescence); type: cell-based; settings: 100 μM SFA pretreatment; H2O2 for 30 min (50 μM, 100 μM elsewhere in the source)
Procedure: as §2
as §3, with “TMRE and rhod-2 AM were excited at 543 nm using a helium/neon laser. DCF was excited at 488 nm using an argon laser.” left out
as §4
ROS is one of the most important inducers of MPTP opening. To investigate whether the suppression of ROS production is associated with the protective effects of SFA, the present inventors assessed the change of DCF fluorescence by 50 μM H2O2 stimulation in each group using time-lapse confocal microscopy (FIG. 4). […]

[7] = test system: neonatal rat cardiac myocytes; test: Time-lapse confocal analysis of [Ca2+]m (rhod-2 fluorescence); type: cell-based; settings: 100 μM SFA pretreatment; H2O2 for 1 hour (50 μM, 100 μM elsewhere in the source)
Procedure: as §2
Cells plated on 35 mm glass-bottom dishes were maintained at 37° C. in the presence of 5% CO2 using a heater platform installed on a microscope stage, and were placed in serum-free DMEM. After the desired temperature was reached, time-lapse confocal microscopy was started with 2 minute intervals, using a 20× objective lens. […]
as §4
Calcium overload in mitochondrial matrix is one of the critical triggers of cell death and is also an important inducer of MPTP opening. To monitor the [Ca^2+]m level, the present inventors performed time-lapse confocal microscopy using the [Ca^2+]m sensitive dye, rhod-2, and observed the change of fluorescence due to 50 μM H2O2 stimulation in each group (FIG. 5). […]

[8] = Blood pressure measurement after femoral vein administration; type: in vivo, Sprague-Dawley male rats; settings: 10 mg/kg into femoral vein; monitored until 10 minutes after administration; anesthetized rats
Procedure: The distal end of the common carotid artery of 8-week-old Sprague-Dawley male rats (about 250 g) was ligated under the effect of pentobarbital anesthetic. Then, to the proximate end thereof, a polyethylene tube filled with heparin-containing saline and connected to a pressure converter was inserted. Changes in blood pressure were recorded by a pen recorder.
A 24-gauge injection needle connected to a syringe via the tube was inserted into the femoral vein, and the liquid drug was injected over 1 to 2 minutes. The blood pressure was monitored from before the liquid drug administration until 10 minutes after the administration.
Serofendic acid was dissolved in Meylon (7% NaHCO3) at a concentration of 4 mg/mL. The blood pressure of each individual rat was measured after only the solvent was administered. Then, 10 mg/kg of serofendic acid was administered. The average of the blood pressure for 3 minutes before the administration of each of SFA and Meylon was set as 100%.

[9] = test system: cultured cortical and striatal neurons; settings: in vitro; cited from earlier work
[10] = electron spin resonance analysis; cited from earlier work
[11] = 25 randomly selected cells, 100 μM SFA, H2O2

In the case of CC1=NS(=O)(=O)c2cc(Cl)ccc2N1 [diazoxide, reference compound], the “protection against ΔΨm loss in the presence of mitoKATP channel blocker 5HD” value ([1]; 100 μM H2O2) is listed as “completely blocked” and the “loss of ΔΨm induced by oxidative stress” value [2] is listed as “prevents the loss of ΔΨm induced by oxidative stress in a concentration-dependent manner”.
With CCCCCC(O)CCCC(=O)O (centres unmarked) [5HD, 5-hydroxydecanoate, reference compound] the “effect of 5HD alone on the loss of ΔΨm elicited by H2O2” value ([1]; 500 μM 5HD, 100 μM H2O2) was “did not aggravate the loss of ΔΨn”.
In the case of C[S+]([O-])CC1C2CCC3(CCC4C(C)(C(=O)O)CCCC4(C)C3C2)C1O (single isomer, unassigned; ent-15) [SFA, ent-15β-hydroxy-17-methylsulfinyl-16α-atisan-19-oic acid], the “nuclear morphology (DAPI staining)” value ([3]; 100 μM SFA, 100 μM H2O2 for 16 hours) is reported as “significant protective effect in the preservation of nuclear morphology”, the TUNEL-positive nuclei ([3]; pretreated with 100 μM SFA followed by 100 μM H2O2 for 16 hours, compared with H2O2 group) is reported as “obviously fewer TUNEL-positive nuclei” and the “cellular viability evaluated by MTS assay” value [4] is reported as “partly but significantly protected against H2O2-induced cytotoxicity”. The “concentration at which the ΔΨm-preserving effect reached its maximum level” value ([1]; 100 μM H2O2 for 1 hour) was 100 µM, the “protective effect in preventing the loss of ΔΨm, versus diazoxide” value ([1]; 100 μM SFA vs 100 μM diazoxide, 100 μM H2O2 for 1 hour) was “comparable to 100 μM diazoxide” and the “effect of co-application with diazoxide on ΔΨm preservation” value ([1]; 100 μM diazoxide and 100 μM SFA vs SFA alone, 100 μM H2O2) was “did not exhibit an additive effect”. The “protection against ΔΨm loss in the presence of mitoKATP channel blocker 5HD” value ([1]; 100 μM H2O2) was “completely blocked”, the “effect on control level of ΔΨm” value ([1]; SFA alone in the absence of H2O2) was “did not affect the control level of ΔΨm” and the “loss of ΔΨm (percentage of cells that maintain high (>200) TMRE fluorescence)” value ([1]; various concentrations of SFA followed by 100 μM H2O2 for 1 hour) was “prevented the loss of ΔΨm in a concentration-dependent manner”. For the same compound, the “TMRE fluorescence over 60 minutes (time-lapse)” value ([5]; 100 μM SFA pretreatment, H2O2 (50 μM, 100 μM elsewhere in the source)) was “remarkably preserved”, the “number of cells undergoing the dissipation of ΔΨm” value [5, 11] was “decreased the number of cells undergoing the dissipation of ΔΨm” and the “onset of ΔΨm loss” value [5, 11] was “delayed the onset of ΔΨm loss”. For the same compound, the “DCF fluorescence (intracellular ROS)” value [6] was “suppressed the increase in DCF fluorescence”, the “rhod-2 fluorescence ([Ca2+]m overload)” value [7] was “partly attenuated the [Ca^2+]m overload” and the “change in average blood pressure” value [8] was “no significant change in average blood pressure was observed”. For the same compound, the “protection of neurons against glutamate, nitric oxide, and H2O2 cytotoxicity” value [9] was “exhibited the ability to protect cultured cortical and striatal neurons” and the hydroxyl radical-scavenging activity [10] was “exhibits hydroxyl radical-scavenging activity”.
